In publication PMC8632000 (Frontiers in Pharmacology, 2021):

Key:
[1] = Population pharmacokinetic model (NONMEM) of vancomycin plasma concentration-time data in surgical patients
Protocol: Only patients who underwent a major surgical procedure and were above the age of 18 years were included in the study. […] The dose selection and duration of infusion were at the discretion of the attending medical practitioners. […] Patient demographics, including age, weight, sex, type of disease, and serum creatinine (SCR) were recorded from patient files, and creatinine clearance (CRCL) was calculated using the Cockcroft and Gault equation ([Cockcroft and Gault, 1976]).
Briefly, separation was carried out using a C18 column (125 mm × 4.6 mm, 5 µm) with UV detection at 205 nm. The mobile phase was a combination of buffer (50 mM ammonium dihydrogen phosphate) at pH 2.2 and acetonitrile (88:12 v/v). The method was linear over the concentration range of 0.25–60 mg/l.
The population pharmacokinetic model was developed using nonlinear mixed effect modeling (NONMEM version 7.4.4) software provided by Icon Clinical Research LLC, New York, NY, USA, along with the Perl-speaks-NONMEM (PsN) toolkit ([Lindbom et al., 2005]). The execution and management of the model as well as report generation were performed with the aid of Pirana (Certara, Princeton, NJ, USA) ([Keizer et al., 2011]). The actual process of modeling began with the development of one-compartment and two-compartment base models using the first-order conditional estimation method with interaction (FOCE-I) to obtain pharmacokinetic parameter estimates without any covariates. […] The exponential random-effect model was used to describe the between-subject variability (BSV) on pharmacokinetic (PK) parameters, while additive, proportional, and combined residual error models were tested to describe the residual error between the observed and predicted concentrations of vancomycin.
The influence of different covariates (age, sex, WT, SeCR, and CRCL) on CL and Vd was determined by stepwise covariate modeling (SCM) in which the covariates were included in the model by forward inclusion and backward elimination processes. […]

[2] = cited from earlier work
[3] = median of 1,000 bootstrap estimates

CN[C@H](CC(C)C)C(=O)N[C@H]1C(=O)N[C@@H](CC(N)=O)C(=O)N[C@H]2C(=O)N[C@H]3C(=O)N[C@H](C(=O)N[C@H](C(=O)O)c4cc(O)cc(O)c4-c4cc3ccc4O)[C@H](O)c3ccc(c(Cl)c3)Oc3cc2cc(c3O[C@@H]2O[C@H](CO)[C@@H](O)[C@H](O)[C@H]2O[C@H]2C[C@](C)(N)[C@H](O)[C@H](C)O2)Oc2ccc(cc2Cl)[C@H]1O [Vancomycin]
CL, bootstrap estimate [1, 3]: 2.46 L/h
V, bootstrap estimate [1, 3]: 22.7 L
V (volume of distribution), final estimate ([1]; one-compartment final model, 58 patients): 22.6 L
Vancomycin CL in obese patients ([2]; obese patients, ref Blouin et al., 1982, Bauer et al., 1998, Adane et al., 2015): 6.54 to 11.8 L/h
Reported CL values in other studies ([2]; ref Buelga et al., 2005, Llopis-Salvia and Jiménez-Torres, 2006, Staatz et al., Thomson et al., 2009, Tanaka et al., 2010, Udy et al., 2013, Escobar et al., 2014, Usman et al., 2018): 1.08 to 2.99 L/h
Vd, lower end of reported range ([2]; ref Escobar et al., 2014): 11.8 L
Vd, upper end of reported range ([2]; ref Lin et al., 2016): 101 L
Fraction of drug excreted via renal elimination ([2]; ref Matzke et al., 1984, Rodvold et al., 1988, Ducharme et al., 1994): 80%–90%
